Source: BindingDB's records for doi:10.3109/14756360903027816 (The University of Montana, 2010)

Target: T1, Acetylcholinesterase (Mus musculus, UniProt P21836)
T1 sequence (P21836 whole entry): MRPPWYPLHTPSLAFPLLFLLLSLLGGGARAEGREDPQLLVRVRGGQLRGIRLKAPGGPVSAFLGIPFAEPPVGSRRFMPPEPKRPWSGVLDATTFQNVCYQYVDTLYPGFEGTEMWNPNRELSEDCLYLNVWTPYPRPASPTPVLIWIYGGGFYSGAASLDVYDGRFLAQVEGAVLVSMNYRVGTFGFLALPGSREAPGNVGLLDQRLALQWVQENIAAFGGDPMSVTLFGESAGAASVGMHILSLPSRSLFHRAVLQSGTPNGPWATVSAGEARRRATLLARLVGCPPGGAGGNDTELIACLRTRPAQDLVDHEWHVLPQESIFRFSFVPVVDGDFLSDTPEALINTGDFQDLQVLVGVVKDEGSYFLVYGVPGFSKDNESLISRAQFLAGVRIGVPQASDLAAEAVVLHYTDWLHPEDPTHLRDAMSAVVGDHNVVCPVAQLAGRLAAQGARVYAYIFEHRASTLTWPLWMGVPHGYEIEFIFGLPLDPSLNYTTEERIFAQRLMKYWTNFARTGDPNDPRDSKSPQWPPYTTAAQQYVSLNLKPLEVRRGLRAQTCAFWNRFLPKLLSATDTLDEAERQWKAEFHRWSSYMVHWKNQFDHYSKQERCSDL
Test: AChE Assay
Details: pH 7.6; 20 °C
Procedure: The inactivation of AChEs was determined using a colorimetric assay [Ellman et al., Biochem. Pharmacol., 7:88-95]. […] DTNB solution and a solution of AChE yielding a 0.1 Abs unit/min rate in PBS (2.80 mL; pH 7.6) were placed in a cuvette at 20°C. To this solution was added either: (a) 10 μL of ACN as the control, or (b) 10 μL of ligand solution (10 mM in ACN). […] The final concentrations of the reactants during enzyme assay were: 0.33 mM DTNB, 0.59 mM ATCh-I, 0.58 mM NaHCO3, and 0.05 mM inhibitor.

SMILES | IC50
C#CCNS(=O)(=O)c1ccc(-c2c3ccc(=[N+](CC)CC)cc-3oc3cc(N(CC)CC)ccc23)c(S(=O)(=O)[O-])c1 [Lissamine propargyl sulfonamide (6)] | 50 nM
C#CCNS(=O)(=O)c1ccc(C2=c3cc4c5c(c3Oc3c2cc2c6c3CCCN6CCC2)CCC[N+]=5CCC4)c(S(=O)(=O)[O-])c1 [Texas Red propargyl sulfonamide (7)] | 700 nM
